This note sets out measurements from ChEMBL document CHEMBL4043270, “Design, synthesis and biological evaluation of 2-phenylquinoline-4-carboxamide derivatives as a new class of tubulin polymerization inhibitors” (Bioorg Med Chem, 2017).

Molecules are shown by their SMILES. pIC50: −log10 of the molar value.

The term pIC50 denotes the IC50 on a negative log10 scale, so that one unit is a factor of ten. A lower pIC50 goes with a large IC50.

Assay [1] relates to HeLa. The assay is described as follows: Antiproliferative activity against human HeLa cells by SRB assay. Format: functional, cell-based. For orientation: Sulforhodamine B stains cellular protein and so reports cell mass.
The test system of assay [2] is A549. The assay is described as follows: Antiproliferative activity against human A549 cells by SRB assay. Format: functional, cell-based.
The subject of assay [3] is MDA-MB-468. The assay can be described thus: Antiproliferative activity against human MDA-MB-468 cells by SRB assay. Format: functional, cell-based.
For assay [4], the system named is SK-OV-3. The assay can be described thus: Antiproliferative activity against human SKOV3 cells by SRB assay. Format: functional, cell-based.
Assay [5] concerns HCT-116. The assay is described as follows: Antiproliferative activity against human HCT116 cells by SRB assay. Format: functional, cell-based.
Assay [6] concerns MRC5. The assay is described as follows: Antiproliferative activity against human MRC5 cells by SRB assay. Format: cell-based.

In the case of `COc1ccc(NC(=O)c2cc(-c3ccc(C)cc3)nc3ccccc23)cc1`, the pIC50 in assay [1] is 4.60; in assay [2], 4.73; in assay [3], 4.45; in assay [4], 5.20; in assay [5], 5.43; in assay [6] it was 4.32.

`COc1ccc(NC(=O)c2cc(-c3ccccc3C)nc3ccccc23)cc1`: the pIC50 was 4.37 in assay [1]; below 4.30 in assay [2]; below 4.30 in assay [3]; 4.44 in assay [4]; 4.50 in assay [5]; below 4.30 in assay [6].

For `COc1ccc(NC(=O)c2cc(-c3ccccc3)nc3ccc(Cl)cc23)c(C)c1`, the pIC50 in assay [1] was below 4.30; in assay [2] it was below 4.30; in assay [3], below 4.30; in assay [4], 4.47; in assay [5], 4.56; in assay [6], below 4.30.

Consider `COc1ccc(NC(=O)c2cc(-c3ccccc3C)nc3ccccc23)c(C)c1`, for which the pIC50 in assay [1] is below 4.30; in assay [2], 4.34; in assay [3], 4.38; in assay [4], 4.37; in assay [5] it was 4.36; in assay [6], below 4.30.

On to `COc1ccc(NC(=O)c2cc(-c3ccc(C)cc3)nc3ccc(C)cc23)cc1`, for which the pIC50 in assay [1] is 4.79; in assay [2], 4.53; in assay [3], 4.49; in assay [4], 5.08; in assay [5], 4.98; in assay [6] it was below 4.30.

For the compound `COc1cc(NC(=O)c2cc(-c3ccccc3)nc3ccc(Cl)cc23)cc(OC)c1OC`, the pIC50 in assay [1] was below 4.30; in assay [2], below 4.30; in assay [3], below 4.30; in assay [4], 4.62; in assay [5], 4.44; in assay [6] it was below 4.30.

`COc1cc(NC(=O)c2cc(-c3ccc(C)cc3)nc3ccc(C)cc23)cc(OC)c1OC`: the pIC50 in assay [1] is 4.87; in assay [2], 4.69; in assay [3] it was 4.43; in assay [4] it was 5.21; in assay [5] it was 5.28; in assay [6], 4.37.

With `CCOc1ccc(NC(=O)c2cc(-c3ccccc3)nc3ccccc23)cc1`, the pIC50 in assay [1] is below 4.30; in assay [2], below 4.30; in assay [3], below 4.30; in assay [4], 4.34; in assay [5], 4.31; in assay [6], below 4.30.

Regarding `COc1ccc(NC(=O)c2cc(-c3cccc(C)c3)nc3ccccc23)c(C)c1`, the pIC50 in assay [1] is 4.98; in assay [2] it was 4.63; in assay [3], 4.49; in assay [4], 4.82; in assay [5], 4.84; in assay [6], below 4.30.

Consider `COc1cc2c(c(OC)c1OC)-c1ccc(OC)c(=O)cc1[C@@H](NC(C)=O)CC2` [COLCHICINE], for which the pIC50 is 6.30 in assay [1]; 7.70 in assay [2]; 7.22 in assay [3]; 7.30 in assay [4]; 8.00 in assay [5]; 7.05 in assay [6].

In the case of `COc1cc(NC(=O)c2cc(-c3cccc(C)c3)nc3ccccc23)cc(OC)c1OC`, the pIC50 in assay [1] is 5.28; in assay [2] it was 4.75; in assay [3], 4.49; in assay [4], 4.97; in assay [5] it was 4.94; in assay [6], 4.37.

Turning to `C=CCNC(=S)NC(=O)c1cc(-c2ccccc2)nc2ccccc12`, the pIC50 in assay [1], in assay [2], in assay [3], in assay [4], in assay [5] and in assay [6] was below 4.30 throughout.

`CSc1cccc(NC(=O)c2cc(-c3ccccc3)nc3ccccc23)c1`: the negative-log IC50 (pIC50) in assay [1] was 4.34; in assay [2], below 4.30; in assay [3] it was 4.37; in assay [4], 4.43; in assay [5], 4.32; in assay [6] it was below 4.30.
